Measurements published in patent publication US11766434B2, “Pyrimidinone derivatives as CDC7 inhibitors” (Cancer Research Technology Limited, priority 2016, dated 2023).

Experiments:
Cdc7/ASK = Cdc7/ASK (Homo sapiens, UniProt O00311); assay: Cdc7 biochemical assay Method 1: 384 well ELISA, MCM2 whole protein substrate, Phospho MCM2 (S53) antibody; parameters: purchased; details: ATP 2 μM, 90 minutes, read-out: Biochemical method 1 (pIC50) (converted)
Protocol: This protocol describes a method for assaying Cdc7/ASK for activity. The assay is a 384 well ELISA assay, utilising a whole protein substrate (MCM2) and an antibody against Phospho MCM2 (S53). This site is thought to be specific to Cdc7/ASK phosphorylation and the assay has been validated using knockout mutants.
• TBS: 25 mM Tris pH 7.2, 150 mM NaCl. (Dilute 10× stock by 1:10). • Wash Buffer: TBS+0.05% Tween 20. (Add 100 mL 1 M Tris pH 7.2, 120 mL 5 M NaCl and 2 mL 100% Tween 20 per 4 L). • Kinase Reaction Buffer: 50 mM Tris-HCl pH 8.5, 10 mM MgCl2, 1 mM DTT. (Dilute 10× stock by 1:10 and add 100 μL 1M DTT per 100 mL prior to assay). • Diethanolamine Buffer: 1 M diethanolamine pH 9.8, 0.5 mM MgCl2. • Stop Solution: 1 M NaOH. • MCM2 was expressed and purified in-house and used in the assay at a final assay concentration of 436 ng/well. • Cdc7/ASK is purchased from commercial suppliers and used in the assay at a final assay concentration of 37.97 ng/well or 20.63 nM. • ATP used as a final assay concentration of 2 μM. • Primary Antibody: Rabbit anti-Phospho MCM2 (S53 Antibody (BL3353)), is purchased from commercial suppliers at 0.2 mg/mL and used at a final assay concentration by diluting 1:800 in TBS. • Secondary Antibody: Anti-Rabbit/AP Antibody is supplied is purchased from commercial suppliers at 1 mg/mL and used at a final assay concentration by diluting 1:2000 in TBS. • Development Reagent: Dissolve one 20 mg PNPP tablet (Sigma, product N2765, 20 mg per tablet) per 20 mL diethanolamine Buffer (or one 5 mg PNPP tablet per 5 mL diethanolamine buffer). Cover in foil and leave shaking on a roller shaker at room temperature for up to an hour to dissolve. Methods • 1. Add 20 μL 1× working stock of Substrate (MCM2) in TBS to all wells of a clear, 384 well, Nickel-chelate microplate to give a final concentration of 250 ng/well. Incubate at room temperature for at least 1 hour. Plates can be pre-coated for 1 hour and stored at 4° C. for up to 8 days. • 2. Wash with TBS+0.05% Tween 20 (80 μL x 3). • 3. Add 2 μL 10× test compounds, including the positive control, in 40% DMSO/water to ‘test’ wells. Add 2 μL 40% DMSO/water to ‘control’ and ‘blank’ wells. The final DMSO concentration will be 4%. • 4. Add 13 μL CDCl7/ASK Kinase (1.5× stock) in Kinase Reaction Buffer to ‘test’ and ‘control’ wells to give a final concentration of […]. Add 13 μL Kinase Reaction Buffer to ‘blank’ wells. • 5. Add 5 μL ATP (4× stock) in Kinase Reaction Buffer to all wells to give a final concentration of 2 μM. • 6. Incubate at room temperature for 90 minutes. • 7. Wash with TBS+0.05% Tween 20 (80 μL x 3). • 8. Add 20 μL 1× working solution of Primary Antibody in TBS to all wells. Incubate at room temperature for 30 minutes. • 9. Wash with TBS+0.05% Tween 20 (80 μL x 3). • 10. Add 20 μL 1× working solution of Secondary Antibody in TBS to all wells. Incubate at room temperature for 30 minutes. • 11. Wash with TBS+0.05% Tween 20 (80 μL x 3). • 12. Add 20 μL 1× Development Reagent to all wells. • 13. Incubate at room temperature for 2 hours. Stop the reaction by adding 20 μL Stop Solution to all wells and record Absorbance on a Pherastar plate reader.
Percentage inhibition values were calculated from absorbance values, using the no compound (DMSO) and no enzyme control values as 0% and 100% inhibition, respectively. IC50 determination was performed with ExcelFit software (IDBS) using curve fit 205. Z′ factors were determined for each plate tested and were all above 0.5.

Cdc7 = Cdc7 (Homo sapiens, UniProt O00311); assay: Cdc7 cell pharmacodynamics assay Method 1: pS53MCM2 levels in HCT116 cells; format: cell-based; parameters: endogenous in cells; details: 6 hours treatment, read-out: Biomarker Method 1 (pEC50) (converted)
Chain of Cdc7 (O00311 whole entry): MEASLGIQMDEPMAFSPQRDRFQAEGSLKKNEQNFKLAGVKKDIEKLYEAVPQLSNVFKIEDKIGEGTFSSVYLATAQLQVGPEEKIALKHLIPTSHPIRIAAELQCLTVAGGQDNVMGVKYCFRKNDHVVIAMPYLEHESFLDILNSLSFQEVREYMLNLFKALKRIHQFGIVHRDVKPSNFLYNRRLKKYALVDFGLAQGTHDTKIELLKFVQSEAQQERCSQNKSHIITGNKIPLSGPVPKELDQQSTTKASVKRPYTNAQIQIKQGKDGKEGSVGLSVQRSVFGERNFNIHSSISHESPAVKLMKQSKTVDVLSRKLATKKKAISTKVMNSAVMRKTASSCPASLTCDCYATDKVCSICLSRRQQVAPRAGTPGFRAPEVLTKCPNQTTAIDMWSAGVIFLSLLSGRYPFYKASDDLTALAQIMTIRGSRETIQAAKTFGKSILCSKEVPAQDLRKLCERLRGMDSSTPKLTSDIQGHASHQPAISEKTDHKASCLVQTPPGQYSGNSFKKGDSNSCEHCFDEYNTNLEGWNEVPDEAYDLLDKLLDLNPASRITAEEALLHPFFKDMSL
Chain of Cdc7 (Q9UBU7 whole entry partner): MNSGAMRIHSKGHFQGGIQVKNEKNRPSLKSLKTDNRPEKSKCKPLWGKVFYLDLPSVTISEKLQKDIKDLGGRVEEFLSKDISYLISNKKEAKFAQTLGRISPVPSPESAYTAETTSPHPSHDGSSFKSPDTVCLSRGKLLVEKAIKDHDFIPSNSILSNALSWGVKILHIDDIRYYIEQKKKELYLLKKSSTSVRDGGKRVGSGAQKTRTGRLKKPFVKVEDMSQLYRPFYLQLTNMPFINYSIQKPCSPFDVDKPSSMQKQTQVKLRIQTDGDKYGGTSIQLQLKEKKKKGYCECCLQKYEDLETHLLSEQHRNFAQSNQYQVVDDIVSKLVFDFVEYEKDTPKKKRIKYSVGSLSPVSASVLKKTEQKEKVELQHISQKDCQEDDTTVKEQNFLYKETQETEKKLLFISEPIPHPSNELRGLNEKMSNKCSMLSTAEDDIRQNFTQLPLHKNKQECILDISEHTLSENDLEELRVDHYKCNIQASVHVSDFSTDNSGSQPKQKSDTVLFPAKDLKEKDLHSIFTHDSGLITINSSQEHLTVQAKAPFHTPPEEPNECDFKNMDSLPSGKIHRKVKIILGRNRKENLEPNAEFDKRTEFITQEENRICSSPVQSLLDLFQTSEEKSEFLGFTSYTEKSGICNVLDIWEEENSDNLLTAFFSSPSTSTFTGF
From the text: This protocol describes a method to investigate the inhibition of Cdc7 activity of compounds by measuring pS53MCM2 levels in cells after treatment.
• HCT116 cells (wild type P53 positive) • McCoys 5A media (PAA Laboratories Ltd, E15-022) • 10% FCS (Sera Laboratories International Ltd, EU000F Batch: 108005) • 100× L-Glutamine (Invitrogen, 25030-024) • D-PBS without CaCl2 and MgCl2 (Invitrogen, ref. 14190-094) • Trypsin/EDTA (Invitrogen 25300-054) • 2% BSA in PBS • Cell Extraction Buffer (Invitrogen FNN0011) • Protease inhibitor cocktail (Sigma P-2714) • PMSF 0.3M stock in DMSO (Sigma P7626) • Antibody—rabbit pMCM2 Ser53 (Bethyl #A300-756A) • Antibody—goat MCM2 (Bethyl #A300-122A) • Antibody—goat Anti Rabbit IgG HRP (Perbio Science UK Ltd 31462) • 1×PBS • FACE Wash buffer (0.02% Triton X100 in 1×PBS) • SuperSignal ELISA Pico Chemiluminescent Substrate (Perbio Science UK Ltd 37070) Method • 72 hours prior to the start of the experiment plate 1×10^6 HCT116 cells in a 150 cm^2 flask in complete McCoys 5A media (+10% FCS+1× L-glutamine). • Plate 20,000 HCT116 cells per well in standard TC treated 96 well plate in 100 μL complete McCoys 5A media. • Allow cells to settle overnight in incubator set at 37° C. and 5% CO2. • Remove intermediate plate from fridge and place at 37° C. overnight to allow to equilibrate. • Cell treatment: cell assay plate 100 μL; daughter to cell transfer volume 3.33 μL; daughter volume 45 μL; mother plate to daughter volume 5 μL. • Once all cells are treated remove the cells to the incubator and incubate for 6 hours. • Dilute the capture antibody (total MCM2 #A300-122A) 1 in 250 in the required volume of PBS (5 mL per assay plate) and add 50 μL to each well of a Hybond plate excluding wells 12E to 12H. In these wells add 50 μL PBS. Seal the plate and incubate at room temperature fora minimum of 2 hours. • Defrost aliquot of Invitrogen Cell Extraction Buffer (FNN0011) on ice and supplement with appropriate volume of both Sigma protease inhibitor cocktail (P-2714) and PMSF (final cone 1 mM from a […] in DMSO). • After the 6 hour cell treatment time tap out the media from the assay plates and place them in the −70° C. freezer for at least 5 minutes. • Remove plates from freezer and add 20 μL of ice cold complete lysis buffer on ice. Incubate cells for 30 minutes at 4° C. • Add 80 μL per well 2% BSA. • Transfer 80 μL from the lysis plate to the same wells in the capture/ELISA plate. Cover with plate seal and incubate plates overnight at 4° C. • Wash plates with PBS, remove any residual remaining liquid and add 50 μL per well of pMCM2 Ser53 antibody (#A300-756A) diluted 1 in 100 in 2% BSA. Cover plate and incubate at room temperature for 2 hours with gentle shaking. • Wash plates with PBS, remove any residual remaining liquid and Incubate with 50 μL goat anti rabbit antibody (1 in 800 dilution in 2% BSA) for 1 hour at room temperature. • Wash plates with PBS, remove any residual remaining liquid and add 50 μL mixed SuperSignal Pico substrate. • Incubate each plate for 5 minutes at room temperature shielding the plates from direct light (with a cover plate). Read plates with the luminescent detection. Method 2

Chain of Cdc7/ASK (O00311 whole entry): as the sequence (O00311 whole entry) above
Chain of Cdc7/ASK (Q9UBU7 whole entry partner): as the sequence (Q9UBU7 whole entry partner) above

Row | IC50 (Cdc7/ASK) | EC50 (Cdc7) | SMILES
1 | 3.31 nM | 110 nM | Cc1ncsc1-c1nc(N2CCN[C@@H](C)C2)c(Cl)c(=O)[nH]1 [Compound 37, 5-chloro-4-[(3S)-3-methylpiperazin-1-yl]-2-(4-methylthiazol-5-yl)-1H-pyrimidin-6-one]
2 | 30.2 nM | 331 nM | Cc1ncsc1-c1nc(C2CCOCC2)c(F)c(=O)[nH]1 [Compound 8, 5-fluoro-2-(4-methylthiazol-5-yl)-4-tetrahydropyran-4-yl-1H-pyrimidin-6-one]
3 | 3.63 nM | 85.1 nM | Cc1ncsc1-c1nc(N2CCNC(C(F)(F)F)C2)c(Cl)c(=O)[nH]1 (centres unmarked) [Compound 31, 5-chloro-2-(4-methylthiazol-5-yl)-4-[3-(trifluoromethyl)piperazin-1-yl]-1H-pyrimidin-6-one]
4 | 5.89 nM | 158 nM | Cc1ncsc1-c1nc(N2CCCC(CO)C2)c(Cl)c(=O)[nH]1 (centres unmarked) [Compound 36, 5-chloro-4-[3-(hydroxymethyl)-1-piperidyl]-2-(4-methylthiazol-5-yl)-1H-pyrimidin-6-one]
5 | 1.41 nM | 24 nM | Cc1ncsc1-c1nc(N2CCCC(F)(F)C2)c(Cl)c(=O)[nH]1 [Compound 35, 5-chloro-4-(3,3-difluoro-1-piperidyl)-2-(4-methylthiazol-5-yl)-1H-pyrimidin-6-one]
6 | 33.1 nM | 1100 nM | CCc1ncsc1-c1nc(C2CCOCC2)c(Cl)c(=O)[nH]1 [Compound 13, 5-chloro-2-(4-ethylthiazol-5-yl)-4-tetrahydropyran-4-yl-1H-pyrimidin-6-one]
7 | 3.47 nM | 251 nM | Cc1ncsc1-c1nc(N2CCC(C)CC2)c(Cl)c(=O)[nH]1 [Compound 30, 5-chloro-4-(4-methyl-1-piperidyl)-2-(4-methylthiazol-5-yl)-1H-pyrimidin-6-one]
8 | 2.29 nM | 83.2 nM | Cc1ncsc1-c1nc(N2CCNCC2)c(Cl)c(=O)[nH]1 [Compound 38, 5-chloro-2-(4-methylthiazol-5-yl)-4-piperazin-1-yl-1H-pyrimidin-6-one]

Continued, compound first:

Row | SMILES | IC50 (Cdc7/ASK) | EC50 (Cdc7)
9 | Cc1ncoc1-c1nc(C2CCOCC2)c(Cl)c(=O)[nH]1 [Compound 12, 5-chloro-2-(4-methyloxazol-5-yl)-4-tetrahydropyran-4-yl-1H-pyrimidin-6-one] | 363 nM | 3630 nM
10 | Cc1ncsc1-c1nc(N2CCC(CO)CC2)c(Cl)c(=O)[nH]1 [Compound 33, 5-chloro-4-[4-(hydroxymethyl)-1-piperidyl]-2-(4-methylthiazol-5-yl)-1H-pyrimidin-6-one] | 2.69 nM | 100 nM
11 | Cc1ncsc1-c1nc(C2CCNCC2)c(Cl)c(=O)[nH]1 [Compound 2, 5-chloro-2-(4-methylthiazol-5-yl)-4-(4-piperidyl)-1H-pyrimidin-6-one] | 3.16 nM | 2000 nM
12 | Cc1cc(C(=O)N2CCC(c3nc(-c4scnc4C)[nH]c(=O)c3Cl)CC2)no1 [Compound 25, 5-chloro-4-[1-(5-methylisoxazole-3-carbonyl)-4-piperidyl]-2-(4-methylthiazol-5-yl)-1H-pyrimidin-6-one] | 4.79 nM | 447 nM
13 | Cc1ncsc1-c1nc(N2CCN[C@H](C)C2)c(Cl)c(=O)[nH]1 [Compound 32, 5-chloro-4-[(3R)-3-methylpiperazin-1-yl]-2-(4-methylthiazol-5-yl)-1H-pyrimidin-6-one] | 8.71 nM | 263 nM
14 | CCc1[nH]ncc1-c1nc(C2CCOCC2)c(Cl)c(=O)[nH]1 [Compound 15, 5-chloro-2-(5-ethyl-1H-pyrazol-4-yl)-4-tetrahydropyran-4-yl-1H-pyrimidin-6-one] | 37.2 nM | 1740 nM
15 | Cc1ncsc1-c1nc(C2CCN(C(=O)c3cc(C)n(C)n3)CC2)c(Cl)c(=O)[nH]1 [Compound 23, 5-chloro-4-[1-(1,5-dimethylpyrazole-3-carbonyl)-4-piperidyl]-2-(4-methylthiazol-5-yl)-1H-pyrimidin-6-one] | 3.31 nM | 3890 nM
16 | Cc1ncsc1-c1nc(N2CCC(O)CC2)c(Cl)c(=O)[nH]1 [Compound 29, 5-chloro-4-(4-hydroxy-1-piperidyl)-2-(4-methylthiazol-5-yl)-1H-pyrimidin-6-one] | 3.16 nM | 158 nM
